One series has as its system H4. Kind of series: Luminescence Cell-Based Dose Response HTS to Identify Activators of 5'UTR Stem-Loop Driven Prion Protein mRNA Translation in H4 Neuroglioblastoma Cells. [Related pubchem assays: 1829 (Project Summary), 1814 (Primary HTS)]. The note with it: Homo sapiens. The format is functional.
For a further series, the target named is Cytochrome P450 3A4 (Homo sapiens, UniProt P08684).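 Note: CYP3A4 tested as one member of a cytochrome P450 panel screen.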
For a further series, the target named is Cytochrome P450 2C19 (Homo sapiens, UniProt P33261). Kind of series: Cytochrome panel assay with activity outcomes. Panel member name: p450-cyp2c19 Compounds with AC50 equal or less than 10 uM are considered active. The format is functional.
Cytochrome P450 2C19, sequence (P33261 whole entry): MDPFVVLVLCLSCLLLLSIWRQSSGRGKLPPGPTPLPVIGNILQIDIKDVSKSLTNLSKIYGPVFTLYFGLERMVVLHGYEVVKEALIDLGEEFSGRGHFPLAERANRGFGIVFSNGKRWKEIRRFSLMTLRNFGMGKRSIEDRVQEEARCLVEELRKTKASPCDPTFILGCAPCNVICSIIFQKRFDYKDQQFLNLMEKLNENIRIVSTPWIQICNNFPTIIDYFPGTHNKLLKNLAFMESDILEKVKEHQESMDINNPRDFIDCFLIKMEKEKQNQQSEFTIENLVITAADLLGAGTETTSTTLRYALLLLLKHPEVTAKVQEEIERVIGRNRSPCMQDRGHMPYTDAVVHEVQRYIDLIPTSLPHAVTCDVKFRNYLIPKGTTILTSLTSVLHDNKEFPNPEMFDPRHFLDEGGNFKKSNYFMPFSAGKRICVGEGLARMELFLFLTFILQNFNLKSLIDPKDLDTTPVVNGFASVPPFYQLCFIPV
In the next series the target is Cytochrome P450 2C9 (Homo sapiens, UniProt P11712).
Cytochrome P450 2C9, sequence (P11712 whole entry): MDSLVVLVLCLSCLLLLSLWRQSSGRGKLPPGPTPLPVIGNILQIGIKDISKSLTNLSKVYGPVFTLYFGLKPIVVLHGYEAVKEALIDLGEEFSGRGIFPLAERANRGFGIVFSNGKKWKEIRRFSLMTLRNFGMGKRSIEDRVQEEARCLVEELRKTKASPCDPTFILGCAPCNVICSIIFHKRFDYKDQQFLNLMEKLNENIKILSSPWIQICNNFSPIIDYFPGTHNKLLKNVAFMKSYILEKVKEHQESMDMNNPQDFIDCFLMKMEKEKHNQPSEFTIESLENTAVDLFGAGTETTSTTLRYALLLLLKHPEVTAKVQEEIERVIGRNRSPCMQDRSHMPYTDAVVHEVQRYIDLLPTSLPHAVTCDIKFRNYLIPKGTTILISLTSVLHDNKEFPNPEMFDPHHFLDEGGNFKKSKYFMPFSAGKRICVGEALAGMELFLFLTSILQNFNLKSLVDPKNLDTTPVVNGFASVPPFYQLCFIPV
Series [1] can be described thus: Trypanosoma cruzi growth suppression in host cells – NIH3T3 host cells, beta-gal luminescence, confirmation (AID 2044).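 Note: intracellular parasites grown in NIH/3T3 mouse fibroblasts as host cells; luminescent beta-galactosidase reporter signal from transgenic T. cruzi replicating inside host cells; inhibitors lower the luminescence signal.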 Format: functional, cell-based.
Series [2] is described as follows: NIH3T3 cell viability loss – ATP luminescence, mouse fibroblasts, counter-screen, dose response (AID 2010).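 Note: cells exposed to compound for about 90 hours before reading.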 The format is functional, cell-based. A general note: The purpose of a counterscreen is to sort out artefacts and off-target activity.

Calls of active or inactive are those of the source. Bounds are passed on as bounds.

For orientation: EC50 means the concentration at which the effect is half-maximal. What is called AC50 is the concentration giving half of the maximal activity seen.

Cytochrome P450 3A4, sequence (P08684 whole entry): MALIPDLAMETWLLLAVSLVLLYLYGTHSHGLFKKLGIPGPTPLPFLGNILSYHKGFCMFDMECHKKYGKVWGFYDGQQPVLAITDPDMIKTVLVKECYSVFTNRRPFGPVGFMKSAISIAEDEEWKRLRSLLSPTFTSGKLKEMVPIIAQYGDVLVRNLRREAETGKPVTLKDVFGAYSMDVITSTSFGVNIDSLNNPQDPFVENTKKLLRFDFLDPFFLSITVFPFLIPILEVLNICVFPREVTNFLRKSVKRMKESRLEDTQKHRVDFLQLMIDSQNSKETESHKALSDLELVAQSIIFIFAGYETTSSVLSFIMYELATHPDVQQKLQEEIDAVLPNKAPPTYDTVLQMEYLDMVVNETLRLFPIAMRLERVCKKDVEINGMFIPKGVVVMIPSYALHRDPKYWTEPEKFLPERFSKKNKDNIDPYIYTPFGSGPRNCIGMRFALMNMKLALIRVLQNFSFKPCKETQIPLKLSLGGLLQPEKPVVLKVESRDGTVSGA

On to `Cn1c(-c2nnn(-c3ccc(F)cc3)n2)cc2ccccc21`, for which, in the series on H4, the EC50 is 36.6 µM (active).

For the compound `CCCC[C@@H]1CN2[C@H](c3ccc(Br)cc3)[C@@H](C)CC[C@H]2C(=O)O1`, on Cytochrome P450 3A4, the concentration at half-maximal activity (AC50) was 5.01 µM (inconclusive).

As to `COc1ccc(Cc2nc3cc(S(=O)(=O)N4CCOCC4)ccc3[nH]2)cc1OC`, on Cytochrome P450 2C19 (read-out: AC50), the half-maximal activity concentration (AC50) was 25.1 µM (inconclusive).

As to `O=C(O)/C(Cc1ccc([N+](=O)[O-])cc1)=N/O`, the AC50 on Cytochrome P450 2C19 (read-out: AC50) is 5.01 µM (inconclusive).

As for `COc1cc(C(=O)NC(=S)Nc2ccc(Cl)c(C(=O)O)c2)cc(OC)c1OC`, on Cytochrome P450 2C9, the half-maximal activity concentration (AC50) is 28.2 µM (inconclusive).

In the case of `CCn1c(SCc2ccc(C(=O)Nc3nccs3)cc2)nnc1-c1ccc(NC(C)=O)cc1`, on Cytochrome P450 3A4, the AC50 is 1.12 µM (inconclusive).

In the case of `CCOc1ccc(-n2c(SCc3nc(-c4ccc(C)cc4)no3)nnc2-c2ccncc2)cc1`, the figures for the concentration giving a half-maximal response (EC50) in series [1] and in series [2] were 1.31 µM (active) and 6.76 µM (active), respectively.

On to `Cc1ccc2nc(N(CCN(C)C)C(=O)c3ccc4c(c3)OCCO4)sc2c1`, for which the EC50 is 0.104 µM (active) in series [1] and > 60 µM (not active) in series [2].

On to `CC(=O)NCCNc1ncnc2ccc(-c3cccc(NS(C)(=O)=O)c3)cc12`, for which the AC50 on Cytochrome P450 3A4 is 7.94 µM (inconclusive).

As for `COCCn1c(=O)c(C)nc2cnc(Oc3ccccc3)nc21`, the figures for the AC50 at Cytochrome P450 2C19 (read-out: AC50) and at Cytochrome P450 3A4 were 39.8 µM (inconclusive) and 25.1 µM (inconclusive), respectively.

With `Cc1ccc(N[C@H](c2ccccc2)c2ccc3cccnc3c2O)cc1`, the AC50 at Cytochrome P450 2C19 (read-out: AC50) is 3.98 µM (inconclusive); on Cytochrome P450 3A4, 3.16 µM (inconclusive); on Cytochrome P450 2C9, 3.98 µM (inconclusive).

Consider `Cn1c(=O)c2c(nc(Cc3ccccc3)n2CC(=O)O)n(C)c1=O`, for which the half-maximal activity concentration (AC50) entry at Cytochrome P450 2C19 is recorded as “inconclusive”.

On to `CCOc1ccc(C(=O)C2=C(O)C(=O)N(CCOCCO)C2c2ccccc2OC)cc1` (stereo not drawn), for which the AC50 on Cytochrome P450 2C19 (read-out: AC50) was 25.1 µM (inconclusive).

Consider `Cc1ccc(-n2c(C)cc(C(=O)COC(=O)c3cccnc3O)c2C)cc1`, for which the EC50 with H4 was > 120 µM (not active).

Turning to `CN[C@@H](c1ccncc1)[C@@H](NC)c1ccncc1`, the AC50 at Cytochrome P450 2C19 (read-out: AC50) was 3.16 µM (inconclusive).

Take `Cc1ccc(NC(=O)CN2C(=O)S/C(=C\c3cccn3C)C2=O)cc1`: the concentration at half-maximal activity (AC50) on Cytochrome P450 3A4 is 7.08 µM (inconclusive).

As to `Cn1c(=O)c2c3c(sc2n2cnnc12)CCC3`, at Cytochrome P450 2C19, the half-maximal activity concentration (AC50) result is “inconclusive”.

For `Cc1ccc(S(=O)(=O)c2nnn3c2nc(NC2CCN(Cc4ccccc4)CC2)c2ccccc23)cc1C`, the half-maximal effective concentration (EC50) in series [1] is 1.24 µM (active); in series [2], > 30 µM (not active).

For `Cc1cccc(N/C=C(\[N+](=O)[O-])S(=O)(=O)c2ccccc2)c1C`, the EC50 in series [1] was > 60 µM (not active); in series [2], > 60 µM (inconclusive).

For the compound `Cc1cccc(CNc2ncncc2-c2ccccc2C)c1`, the concentration at half-maximal activity (AC50) on Cytochrome P450 2C9 is 1.26 µM (inconclusive).

Consider `Cc1ccccc1-c1ccc2ncnc(N(C)C)c2c1`, for which the AC50 at Cytochrome P450 2C9 was 0.398 µM (inconclusive).

For the compound `COC(=O)Cn1cc(/C=N/NC(=O)c2ccc(C#N)cc2F)c2ccccc21`, the figures for the AC50 at Cytochrome P450 2C19 (read-out: AC50) and at Cytochrome P450 2C9 were 22.4 µM (inconclusive) and 8.91 µM (inconclusive), respectively.

In the case of `Cc1ccsc1C(=O)C1CCCN(Cc2cnc(N3CCOCC3)s2)C1` (stereo not drawn), the EC50 in series [1] was 0.146 µM (active); in series [2] it was > 60 µM (not active).

As for `COCCNc1nc(-c2ccccc2C)nc2ccccc12`, the AC50 on Cytochrome P450 3A4 was 12.6 µM (inconclusive).

On to `COc1ccc(S(=O)(=O)N2CCCN(CC(=O)Nc3ccc(OC)c(Cl)c3)CC2)cc1`, for which, at Cytochrome P450 2C9, the AC50 is 39.8 µM (inconclusive).

Turning to `N=C(NC(=O)c1ccccc1F)Nc1nc2ccccc2o1`, on Cytochrome P450 2C19 (read-out: AC50), the concentration at half-maximal activity (AC50) was 22.4 µM (inconclusive).

In the case of `Cc1cc(N2C(=O)C(O)=C(C(=O)c3cccs3)C2c2cccc(O)c2)no1` (stereo not drawn), the concentration at half-maximal activity (AC50) at Cytochrome P450 2C19 (read-out: AC50) was 31.6 µM (inconclusive).

As for `Nc1c(C(=O)Nc2ccccc2)c2nc3ccccc3nc2n1-c1ccc(O)cc1`, the results for the EC50 in series [1] and in series [2] were 2.07 µM (active) and 15.9 µM (active), respectively.

For the compound `O=c1c(-c2cccc(F)c2)nc2cncnc2n1-c1ccccc1`, on Cytochrome P450 3A4, the half-maximal activity concentration (AC50) was 20 µM (inconclusive).

On to `c1ccc(Cn2c3ccccc3c3nnc(SCCN4CCCCC4)nc32)cc1`, for which the 50% effective concentration (EC50) is 0.489 µM (active) in series [1] and > 60 µM (not active) in series [2].

On to `CCCCC1CC(/C(C)=N/NC(N)=O)OC1=O` (stereo not drawn), for which the AC50 on Cytochrome P450 2C9 was 20 µM (inconclusive).

For the compound `Cc1cccc(C(=O)c2ccccc2C(=O)O)c1O`, the AC50 on Cytochrome P450 3A4 is 25.1 µM (inconclusive); at Cytochrome P450 2C9 it was 0.1 µM (inconclusive).

In the case of `COCCn1c(=O)c(-c2ccccc2)nc2cnc(OCc3ccccc3)nc21`, the AC50 at Cytochrome P450 2C19 (read-out: AC50) was 20 µM (inconclusive).

On to `c1ccc(CNc2ncncc2-c2ccc3c(c2)OCO3)cc1`, for which the concentration at half-maximal activity (AC50) on Cytochrome P450 2C9 is 0.316 µM (inconclusive).

With `COc1ccc(C(CC(=O)Nc2cc(OC)cc(OC)c2)n2cccc2)cc1` (stereo not drawn), the values for the EC50 in series [1] and in series [2] were 2.45 µM (active) and > 60 µM (not active), respectively.

On to `O=C(N/N=C/c1c(Nc2cccc(C(F)(F)F)c2)nc2ccccn2c1=O)c1ccccc1`, for which the concentration at half-maximal activity (AC50) at Cytochrome P450 2C9 is 12.6 µM (inconclusive).

`COc1ccc2[nH]c3c(c2c1)CCN1C(=O)N([C@@H](C)C(=O)NC2CCN(Cc4ccccc4)CC2)C(=O)[C@]31C`: the EC50 in series [1] was 0.122 µM (active); in series [2], > 60 µM (not active).

Turning to `OCCN=c1cc(-c2ccccc2)oc2ccc(Cl)cc12`, the AC50 at Cytochrome P450 3A4 was 10 µM (inconclusive).

Turning to `Cc1ccc(N=Nc2c(=O)[nH]n3c(C)cc(C)nc23)cc1`, the AC50 was 39.8 µM (inconclusive) on Cytochrome P450 2C19 (read-out: AC50) and 25.1 µM (inconclusive) on Cytochrome P450 3A4.

As to `COc1ccc(/C=C/C(=O)N2c3ccccc3Sc3ccc(C(F)(F)F)cc32)cc1`, the EC50 in series [1] is 2.8 µM (active); in series [2], > 60 µM (not active).

Take `COc1cccc(CNCCc2cccc(F)c2)c1OC`: the values for the 50% effective concentration (EC50) in series [1] and in series [2] were 0.828 µM (active) and > 60 µM (not active), respectively.

Take `CC1(C)C([N+](=O)[O-])C(c2ccc(Cl)cc2)NC(c2ccc(Cl)cc2)C1[N+](=O)[O-]` (stereo not drawn): the figures for the EC50 in series [1] and in series [2] were 2 µM (active) and > 60 µM (inconclusive), respectively.

Regarding `CCC1Oc2ccc(C)cc2N(CC(=O)N(Cc2cccnc2)Cc2cccc(F)c2)C1=O` (stereo not drawn), the EC50 in series [1] was 0.145 µM (active); in series [2] it was > 60 µM (not active).

As to `CCOc1ccc(N2C(=O)/C(=C/c3cc(OC)c(OC)c(OC)c3)N(CC(=O)OC)C2=S)cc1`, the AC50 on Cytochrome P450 3A4 was 15.8 µM (inconclusive); on Cytochrome P450 2C9 it was 1.41 µM (inconclusive).

For the compound `O=S(=O)(c1ccccc1)N1CN2CN(C1)CN(S(=O)(=O)c1ccccc1)C2`, the AC50 on Cytochrome P450 2C9 is 0.631 µM (inconclusive).

Regarding `O=C(CSc1nc(C2CC2)nc2ccccc12)N1c2ccccc2Sc2ccccc21`, the EC50 was 4.43 µM (active) in series [1] and > 60 µM (not active) in series [2].

For `CCn1nnnc1SCC(=O)c1ccc2c(c1)OCCO2`, at Cytochrome P450 2C9, the half-maximal activity concentration (AC50) is 17.8 µM (inconclusive).

Take `COc1ccc(C(=O)CCN(C)C)c2ccccc12`: on Cytochrome P450 3A4, the AC50 was 0.316 µM (inconclusive).

As to `COc1ccc(Cc2noc(CN3CCCN(Cc4ccc(F)cc4)CC3)n2)cc1OC`, the values for the EC50 in series [1] and in series [2] were 0.248 µM (active) and > 60 µM (not active), respectively.

Consider `COc1ccccc1CN1CCN(Cc2nc(-c3cccs3)no2)CC1`, for which the EC50 in series [1] was 0.841 µM (active); in series [2] it was > 60 µM (not active).

Values taken from ChEMBL document CHEMBL1201862, “PubChem BioAssay data set” (2004).
